Laboratory results reported in US8497385B2, “Bryostatin analogues, synthetic methods and uses” (The Board of Trustees of the Leland Stanford Junior …, priority 2007, dated 2013).
Where two headings read alike, the source gives them in different places.

Legend:
[1] = molecular target: rat brain PKC isozyme mixture; assay: Protein Kinase C (Isozyme Mix) Assay; type: binding; details: for Ki: rat brain PKC isozyme mixture, read-out: Binding Affinity
P388 cell line = assay: P388 Murine Lymphocytic Leukemia Cell Assay; type: cell-based; details: 5 days incubation, MTT
Description: Cells from a P388 cell line (CellGate, Inc., Sunnyvale, Calif.) are grown in RPMI 1640 cell medium containing fetal calf serum (10%), L-glutamine, penicillin, streptomycin and are split twice weekly. All compounds are first diluted with DMSO. Later serial dilutions are done with a phosphate buffer solution (HYQ DPBS modified phosphate buffered saline). All dilutions are done in glass vials and the final DMSO concentration is always below 0.5% by volume. Final two-fold dilutions are done in a 96 well plate using cell media so that each well contains 50 μL. All compounds are assayed in quadruplicate over 12 concentrations. Cell concentration is measured using a hemacytometer and the final cell concentration is adjusted to 1×10^4 cells/mL with cell medium. The resulting solution of cells (50 μL) is then added to each well and the plates are incubated for 5 days in a 37° C., 5% CO2, humidified incubator (Sanyo CO2 incubator). MTT solution (3-[4,5-dimethylthiazol-2-yl]-2,5-diphenyltetrazolium bromide, 10 μL) is then added to each well and the plates are re-incubated under identical conditions for 2 h. To each well is then added acidified isopropanol (150 μL of i-PrOH solution containing 0.05 N HCl) and mixed thoroughly. The plates are then scanned at 595 nm and the absorbances are read (Wallac Victor 1420 Multilabel Counter). The resulting data is then analyzed to determine an ED50 value using the Prism software package (GraphPad).

PKCδ-C1B = PKCδ-C1B (Homo sapiens (Human), UniProt Q05655); assay: PKCδ-C1B Assay; type: binding
PKCδ-C1B, sequence (Q05655 whole entry, looked up): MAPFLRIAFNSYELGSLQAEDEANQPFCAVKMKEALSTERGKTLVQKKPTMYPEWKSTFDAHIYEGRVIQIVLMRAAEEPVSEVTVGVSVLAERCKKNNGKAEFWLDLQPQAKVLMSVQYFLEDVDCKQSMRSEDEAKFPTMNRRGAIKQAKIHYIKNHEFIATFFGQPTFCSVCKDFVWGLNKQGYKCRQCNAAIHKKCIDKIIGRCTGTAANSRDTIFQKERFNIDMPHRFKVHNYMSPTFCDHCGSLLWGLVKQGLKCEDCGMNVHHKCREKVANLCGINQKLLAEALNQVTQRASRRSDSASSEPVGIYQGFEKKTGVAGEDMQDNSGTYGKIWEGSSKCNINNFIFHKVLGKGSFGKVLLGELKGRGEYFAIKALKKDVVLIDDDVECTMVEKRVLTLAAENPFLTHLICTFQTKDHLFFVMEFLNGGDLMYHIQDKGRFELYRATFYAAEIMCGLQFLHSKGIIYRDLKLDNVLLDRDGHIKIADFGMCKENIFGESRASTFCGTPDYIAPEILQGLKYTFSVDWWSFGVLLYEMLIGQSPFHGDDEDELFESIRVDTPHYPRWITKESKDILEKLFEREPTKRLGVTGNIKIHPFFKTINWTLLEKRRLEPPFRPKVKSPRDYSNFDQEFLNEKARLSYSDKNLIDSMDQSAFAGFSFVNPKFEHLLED

SMILES	Ki [1] [nM]	other results
CCCCCCCC(=O)O[C@H]1/C(=C/C(=O)OC)C[C@H]2C[C@H](CO)OC(=O)C[C@H](O)CCO[C@H](c3ccc(Br)cc3)C[C@@H]3CCO[C@H](/C=C/C(C)(C)[C@]1(O)O2)O3 [Formula 18C]	1.6	
CCCCCCCC(=O)O[C@H]1/C(=C/C(=O)OC)C[C@H]2C[C@H](CO)OC(=O)C[C@H](O)CCO[C@H](c3ccccc3)C[C@@H]3CCO[C@H](/C=C/C(C)(C)[C@]1(O)O2)O3 [Formula 19B.0]	2.3	
CCCCCCCC(=O)O[C@H]1/C(=C/C(=O)OC)C[C@H]2C[C@H](CO)OC(=O)C[C@H](O)CCO[C@H](c3ccc(-c4ccccc4)cc3)C[C@@H]3CCO[C@H](/C=C/C(C)(C)[C@]1(O)O2)O3 [Formula 19B.1]	3.1	
CCCCCCCC(=O)O[C@H]1/C(=C/C(=O)OC)C[C@H]2C[C@H](CO)OC(=O)C[C@H](O)CCO[C@H](c3ccc(CCCOCCOCC)cc3)C[C@@H]3CCO[C@H](/C=C/C(C)(C)[C@]1(O)O2)O3 [Formula 19B.2]	3.8	
CCCCCC/C=C/c1ccc([C@@H]2C[C@@H]3CCO[C@H](/C=C/C(C)(C)[C@]4(O)O[C@@H](C/C(=C\C(=O)OC)[C@@H]4OC(=O)CCCCCCC)C[C@H](CO)OC(=O)C[C@H](O)CCO2)O3)cc1 [Formula 19B.3]	4.6	
COC(=O)/C=C1\C[C@H]2C[C@H]([C@@H](C)O)OC(=O)C[C@H](O)C[C@@H]3CCC[C@H](C[C@@H]4CCO[C@H](/C=C/C(C)(C)[C@](O)(O2)[C@H]1OC(C)=O)O4)O3 [Formula 702.2]		P388 Assay ED50 (P388 cell line): 181 nM; Ki (PKCδ-C1B): 232 ± 11 nM
CCCCCCC(=O)OC1C(=CC(=O)OC)CC2CC(C(C)O)OC(=O)CC(O)CC3CCCC(CC4CCOC(C=CC(C)(C)C1(O)O2)O4)O3 (stereo not shown) [Formula 702.3]		P388 Assay ED50 (P388 cell line): 38 nM; Ki (PKCδ-C1B; competition with tritiated phorbol 12,13-dibutyrate): 35 nM
CCCC(=O)O[C@@H]1[C@@H](C)[C@@]2(O)[C@@H](C=C(CO)C[C@]3(O)C(=O)C(C)=C[C@@H]23)[C@@H]2C(C)(C)[C@]12OC(=O)CCC [Phorbol dibutyrate, phorbol 12,13-dibutyrate, reference compound]		Kd ([1]; under identical conditions to the PKC isozyme mix assay, read-out: Kd of [H^3]-PDBu): 1.55 nM
